Assay results published in ChEMBL document CHEMBL5537211, “Synthesis and Antifungal Activity of Stereoisomers of Mefloquine Analogs” (2024).
≈ marks a conversion by molar mass, not a printed value.

Assays:
Assay type in all cases: functional
Candida albicans [1] = test: Antifungal activity against Candida albicans by CLSI M27-A3 protocol based absorbance assay
Cryptococcus neoformans [2] = test: Antifungal activity against Cryptococcus neoformans H99 assessed as fungal growth inhibition incubated for 72 hrs by CLSI protocol based microbroth dilution assay
Candida albicans [3] = test: Antifungal activity against Candida albicans SC5314 assessed as fungal growth inhibition incubated for 24 hrs by CLSI protocol based microbroth dilution assay
Cryptococcus neoformans [4] = test: Antifungal activity against Cryptococcus neoformans by CLSI M27-A3 protocol based absorbance assay
Candida albicans [5] = test: Antifungal activity against Candida albicans
Cryptococcus neoformans [6] = test: Antifungal activity against Cryptococcus neoformans
[7] = Selectivity ratio of MIC for antifungal activity against Candida albicans SC5314 to MIC for antifungal activity against Cryptococcus neoformans H99

Row | Compound | MIC (Candida albicans [1]) [µg/mL] | MIC (Cryptococcus neoformans [2]) [µg/mL] | MIC (Candida albicans [3]) [µg/mL] | MIC (Cryptococcus neoformans [4]) [µg/mL] | MIC (Candida albicans [5]) [µg/mL] | MIC (Cryptococcus neoformans [6]) [µg/mL] | Selectivity ratio [7]
1 | OC(c1cc(-c2ccc(Cl)cc2)nc2c(Cl)cccc12)C1CCCCN1 (racemic) | 4 (≈ 10.3 µM) | 2 (≈ 5.16 µM) | 8 (≈ 20.7 µM) | 1 (≈ 2.58 µM) |  |  | 
2 | OC(Cn1cncn1)(Cn1cncn1)c1ccc(F)cc1F [FLUCONAZOLE] |  | 2 (≈ 6.53 µM) | ≤ 0.125 |  |  |  | 
3 | O[C@@H](c1cc(-c2ccc(Cl)cc2)nc2c(Cl)cccc12)[C@@H]1CCCCN1 |  | 2 (≈ 5.16 µM) | 8 (≈ 20.7 µM) |  |  |  | 
4 | O[C@H](c1cc(-c2ccc(Cl)cc2)nc2c(Cl)cccc12)[C@@H]1CCCCN1 |  | 1 (≈ 2.58 µM) | 4 (≈ 10.3 µM) |  |  |  | 
5 | Cl.O[C@@H](c1cc(-c2ccc(Cl)cc2)nc2ccccc12)[C@@H]1CCCCN1 (racemic) |  | 16 | 64 |  |  |  | 
6 | OC(c1cc(C2CC3CCC2CC3)nc2c(Cl)cc(Cl)cc12)C1CCCCN1 (racemic) |  |  |  |  | 1.5 (≈ 3.58 µM) | 0.4 (≈ 0.954 µM) | 
7 | Cl.O[C@@H](c1cc(-c2ccc(Cl)cc2)nc2ccccc12)[C@H]1CCCCN1 (racemic) |  | 8 | 16 |  |  |  | 
8 | O[C@@H](c1cc(-c2ccc(Cl)cc2)nc2c(Cl)cccc12)[C@H]1CCCCN1 |  | 1 (≈ 2.58 µM) | 4 (≈ 10.3 µM) |  |  |  | 
9 | O[C@@H](c1cc(C(F)(F)F)nc2c(C(F)(F)F)cccc12)[C@H]1CCCCN1 (racemic) [(S,R)-MEFLOQUINE] |  | 16 (≈ 42.3 µM) | 128 (≈ 338 µM) |  | > 128 | 32 (≈ 84.6 µM) | 8
10 | O[C@H](c1cc(-c2ccc(Cl)cc2)nc2c(Cl)cccc12)[C@H]1CCCCN1 |  | 2 (≈ 5.16 µM) | 8 (≈ 20.7 µM) |  |  |  | 
